Results from ChEMBL document CHEMBL1138364 (J Med Chem, 2007).

Tests used:
[1] = tested on: Human alphaherpesvirus 3; assay: Antiviral activity against TK+ VZV OKA in HEL cells after 5 days; format: functional, organism-based; details: Human alphaherpesvirus 3, OKA, 120 h
[2] = tested on: Human alphaherpesvirus 3; assay: Antiviral activity against TK+ VZV YS in HEL cells after 5 days; format: functional, organism-based; details: Human alphaherpesvirus 3, YS, 120 h
[3] = tested on: Human alphaherpesvirus 3; assay: Antiviral activity against TK- VZV 07 in HEL cells after 5 days; format: functional, organism-based; details: Human alphaherpesvirus 3, 07, HEL, 120 h
[4] = Cytotoxicity against HEL cells assessed as alteration in cell morphology; format: cell-based; details: human
[5] = Cytotoxicity against HEL cells; format: cell-based; details: human
[6] = Inhibition of VZV-TK catalyzed dThd phosphorylation; design: species or system Human alphaherpesvirus 3
[7] = tested on: Human alphaherpesvirus 3; assay: Antiviral activity against TK- VZV YS in HEL cells after 5 days; format: functional, organism-based; details: Human alphaherpesvirus 3, YS, 120 h

Structure (SMILES) | EC50 [1] | EC50 [2] | EC50 [3] | MCC [4] | CC50 [5] | IC50 [6] | EC50 [7]
CCCCCc1ccc(-c2cc3cn([C@@H]4C[C@H](CO)[C@@H](O)C4)c(=O)nc3o2)cc1 | 490 nM | 280 nM | > 50 µM | > 50 µM | > 50 µM | 44 µM | –
Nc1nc2c(ncn2COCCO)c(=O)[nH]1 [ACYCLOVIR] | – | – | – | > 200 µM | > 200 µM | – | –
O=c1[nH]c(=O)n([C@H]2C[C@H](O)[C@@H](CO)O2)cc1/C=C/Br [BRIVUDINE] | 5 nM | 5 nM | > 200 µM | > 200 µM | > 200 µM | 1.3 µM | > 200 µM
CCCCCc1ccc(-c2cc3cn([C@H]4C[C@H](O)[C@@H](CO)O4)c(=O)nc3o2)cc1 [CF1743] | – | – | – | > 20 µM | – | – | –
